Test results reported in patent US20130029981A1, “COMPOUNDS, COMPOSITIONS, AND METHODS FOR CONTROLLING BIOFILMS” (Katholieke Universiteit Leuven, priority 2009, published 2013).
Where two headings read alike, the source gives them in different places.

Columns and labels:
[1] = tested on: Salmonella Typhimurium ATCC 14028; assay: Antibacterial activity: growth inhibition, OD600 after 24 h (GIC50); format: cell-based
Protocol: Evaluation of antibacterial-inhibitory activity of some substituted 2-amino-1H-imidazoles of the invention was carried out by diluting an overnight culture of Salmonella Typhimurium ATCC 14028 into a liquid medium. 200 μl of the diluted overnight culture was added to each well of a microtiter plate together with different concentrations of the test compound (1/2 dilution series of the compound). After an incubation of 24 hours the optical density at 600 nm of each well was determined with a microtiter plate reader.
Starting from a 40 mM stock solution of each compound in DMSO, two-fold serial dilutions in 100 μl liquid broth per well were prepared in dublicate in sterile transparant microtiter plates. The broth used was TSB 1/20 for measurements at 25° C. and CFA (in case of Salmonella Typhimurium) and LBNS (in case of Pseudomonas aeruginosa) for measurements at 37° C. Subsequently an overnight culture of the bacteria (S. Typhimurium ATCC14028 or P. aeruginosa PA14) was diluted 1/200 into the corresponding liquid broth and 100 μl was added to each well of the microtiterplate resulting in a total amout of 200 μl medium per well. After an incubation of 24 hours the optical density at 600 nm of each well was determined with a microtiter plate reader (VERSAmax, Molecular Devices).
Evaluation of antibacterial-inhibitory activity of some substituted imidazo[1,2-a]pyrimidinium bromide salts of the invention was carried out by diluting an overnight culture of Salmonella Typhimurium ATCC14028 or Pseudomonas aeruginosa PA141/200 into liquid medium. 200 μl of the diluted overnight culture was added to each well of a microtiterplate together with different concentrations of the test compound (1/2 dilution series of the compound). After an incubation of 24 hours the optical density at 600 nm of each well was determined with a microtiter plate reader.

S. Typhimurium ATCC14028 [2] = assay: Static peg assay for prevention of biofilm formation (Calgary device, crystal violet); format: cell-based, Salmonella Typhimurium
Summary of the method: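 Calgary 96-peg device, ca. 10^6 cells of ATCC14028 per well in TSB 1/20 for 24 h at 25° C (or 48 h at 16° C, medium and compound renewed at 24 h), or in CFA broth for 24 h at 37° C, static, with two-fold compound dilutions. Crystal violet stain, acetic acid extraction, OD570. IC50 from 2–3 independent experiments.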

[3] = tested on: Pseudomonas aeruginosa PA14; assay: as above; format: cell-based
Summary of the method: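 P. aeruginosa PA14 overnight TSB culture diluted 1:100 into broth with two-fold compound dilutions, biofilms grown 24 h static on polystyrene pegs of a Calgary device at 25 °C (TSB 1/20), 30 °C or 37 °C (CFA and/or LBNS). Biofilm quantified by crystal violet, extracted with 30% acetic acid, A570.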

S. Typhimurium ATCC14028 [4] = assay: Bioscreen assay: influence on planktonic growth curve; format: cell-based, Salmonella Typhimurium; settings: 40 μM; for Effect on growth at: 40 μM (S. Typhimurium): planktonic growth, 25° C.
Text: (§1) Some of the tested compounds show a concentration range in which biofilm formation is inhibited but no effect on planktonic growth is observed. These compounds are particularly interesting for prevention of biofilm formation since the development of resistance against these compounds is less likely. Table 8 indicates whether the different compounds have an effect on the planktonic growth of the bacteria at the IC50 for biofilm inhibition. To construct Table 8, the effect of the tested compounds on the growth curve of the bacteria was determined at a concentration equal to the IC50 for biofilm inhibition, by using the Bioscreen system available from Oy Growth Curves Ab Ltd). The Bioscreen device from Oy Growth Curves Ab Ltd was used for measuring the influence of the chemical compounds on the planktonic growth of Salmonella Typhimurium and Pseudomonas aeruginosa. The Bioscreen is a computer controlled incubator/reader/shaker that uses 10×10 well microtiter plates and measures light absorbance of each well at a specified wave length in function of time. An overnight culture of S. […] The broth used was TSB 1/20 for the experiments at 16° C. and 25° C. For experiments at 37° C. CFA medium was used for S. […] As a control 3 μl of the appropriate solvent (DMSO or EtOH) was also added to the plate in 3- or 4-fold. The microtiter plate was incubated in the Bioscreen device at 16° C., 25° C. or 37° C. for at least 36 hours, with continious medium shaking. The absorbance of each well was measured at 600 nm each 15 minutes. Excel was used to generate the growth curves for treated the treated wells and the untreated control wells. Some of the compounds show a concentration range in which biofilm formation is inhibited but no effect on the planktonic growth is observed. Table 14 indicates if the different compounds have an effect on the planktonic growth of the bacteria at the IC50 for biofilm inhibition. To construct this table the effect of the compounds on the growth curve of the bacteria was determined at a concentration equal to the IC50 for biofilm inhibtion, by using the Bioscreen system from Oy Growth Curves Ab Ltd.

S. Typhimurium ATCC14028 [5] = assay: as above; format: cell-based, Salmonella Typhimurium; design: key: x: no influence on the planktonic growth at the IC50 for biofilm inhibition; ∘: planktonic growth is retarded at the IC50 for biofilm inhibition; settings: planktonic growth at the IC50 for biofilm inhibition, 25° C.
Text: as §1

[6] = OD600 after 24 hours of growth, read-out: GIC(50)
[7] = S. Typhimurium ATCC 14028, 25° C., read-out: IC50 for biofilm inhibition (25° C.)
[8] = 25° C., Table 11, read-out: IC50 (biofilm formation)
[9] = 25° C., Table 14, read-out: IC50 biofilm inhibition
[10] = 25° C., Table 19, read-out: IC50 (biofilm formation)
[11] = S. Typhimurium ATCC 14028, 25° C., read-out: S. Typhimurium IC50 (biofilm formation)
[12] = P. aeruginosa PA14, 25° C., read-out: P. aeruginosa IC50 (biofilm formation)
[13] = 25° C., Table 22, read-out: S. Typhimurium IC50 (biofilm formation)
[14] = 25° C., Table 22, read-out: P. aeruginosa IC50 (biofilm formation)

## Clc1ccc(-c2c[nH]c(NC3CCCC3)n2)cc1Cl
[1]; [6]
  IC50: 50 µM
S. Typhimurium ATCC14028 [2]; [7]
  IC50: 6 µM
[3]; P. aeruginosa PA14, 25° C., read-out: IC50 for biofilm inhibition (25° C.)
  IC50: 1 µM

## OC1(c2ccc(Cl)cc2)C[n+]2cccnc2N1C1CC1 (stereo not shown) [Compound 61]
[1]; 25° C.
  IC50: 100 to 200 µM
S. Typhimurium ATCC14028 [2]; [8]
  IC50: 120 µM
S. Typhimurium ATCC14028 [2]; [9]
  IC50: 120 µM
S. Typhimurium ATCC14028 [2]; 25° C., Table 18, read-out: S. Typhimurium IC50 (biofilm formation)
  IC50: 82.7 µM
[3]; 25° C., Table 18, read-out: P. aeruginosa IC50 (biofilm formation)
  IC50: 179 µM

## COc1cccc(CCN2c3nccc[n+]3CC2(O)c2ccc(Cl)c(Cl)c2)c1.[Br-] (stereo not shown) [Compound 77]
S. Typhimurium ATCC14028 [4]
  Effect on growth at 40 μM: ∘
S. Typhimurium ATCC14028 [2]; [8]
  IC50: 7.39 µM
S. Typhimurium ATCC14028 [2]; [9]
  IC50: 7.39 µM
S. Typhimurium ATCC14028 [2]; [10]
  IC50: 7.23 µM
S. Typhimurium ATCC14028 [5]
  Influence on growth: x

## OC1(c2ccc3c(c2)OCO3)C[n+]2cccnc2N1Cc1ccc2c(c1)OCO2 (stereo not shown) [Compound 80]
[1]; 25° C.
  IC50: 100 to 200 µM
S. Typhimurium ATCC14028 [2]; [8]
  IC50: 102 µM
S. Typhimurium ATCC14028 [2]; [9]
  IC50: 102 µM
S. Typhimurium ATCC14028 [2]; [10]
  IC50: 53.7 µM

## Nc1nc(-c2ccc([N+](=O)[O-])cc2)c[nH]1 [Compound 90]
S. Typhimurium ATCC14028 [4]
  Effect on growth at: 40 μM (S. Typhimurium): ∘
S. Typhimurium ATCC14028 [2]; [11]
  IC50: 17.6 µM
[3]; [12]
  IC50: 34.5 µM

## CCCCCNc1ncc(-c2ccc(Cl)c(Cl)c2)[nH]1 [Compound 110]
S. Typhimurium ATCC14028 [4]
  Effect on growth at: 40 μM (S. Typhimurium): ∘
S. Typhimurium ATCC14028 [2]; [11]
  IC50: 2.2 µM
[3]; [12]
  IC50: 0.7 µM

## Clc1ccc(-c2cnc(NCc3ccccc3)[nH]2)cc1 [Compound 127]
[1]; [6]
  IC50: 100 µM
S. Typhimurium ATCC14028 [2]; [13]
  IC50: 30.7 µM
S. Typhimurium ATCC14028 [2]; [7]
  IC50: 31 µM
[3]; [14]
  IC50: 26.3 µM

## COc1cccc(CCNc2ncc(-c3ccc(Cl)c(Cl)c3)[nH]2)c1 [Compound 130]
S. Typhimurium ATCC14028 [2]; [13]
  IC50: > 800 µM
[3]; [14]
  IC50: > 800 µM

## Fc1ccc(-c2cnc(NCc3ccc4c(c3)OCO4)[nH]2)cc1 [Compound 132]
S. Typhimurium ATCC14028 [2]; [13]
  IC50: 66.6 µM
S. Typhimurium ATCC14028 [2]; [7]
  IC50: 68 µM
[3]; [14]
  IC50: 456 µM

## c1ccc2c(-c3cnc(NCc4ccc5c(c4)OCO5)[nH]3)cccc2c1 [Compound 133]
S. Typhimurium ATCC14028 [2]; Salmonella enterica, 25° C., Table 22, read-out: S. Typhimurium IC50 (biofilm formation)
  IC50: 261 µM
[3]; Pseudomonas aeruginosa, PA14, 25° C., Table 22, read-out: P. aeruginosa IC50 (biofilm formation)
  IC50: 10.5 µM
